Molecular target: Factor IXa (Homo sapiens, UniProt P00740)
Assay: Determination of inhibitory activity against Factor IXa (cleavage of fluorescent peptide substrate)
Type: biochemical
Settings: cleavage of fluorescent peptide CH3SO2-D-CHG-Gly-Arg-AFC, release of AFC; read-out: FIXa IC50
Procedure, shortened: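 Factor IXa activity followed via cleavage of CH3SO2-D-CHG-Gly-Arg-AFC, releasing AFC. Fluorescence read at excitation 405 nm, emission 510 nm.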

Factor IXa, sequence (P00740 227-461 limits assumed): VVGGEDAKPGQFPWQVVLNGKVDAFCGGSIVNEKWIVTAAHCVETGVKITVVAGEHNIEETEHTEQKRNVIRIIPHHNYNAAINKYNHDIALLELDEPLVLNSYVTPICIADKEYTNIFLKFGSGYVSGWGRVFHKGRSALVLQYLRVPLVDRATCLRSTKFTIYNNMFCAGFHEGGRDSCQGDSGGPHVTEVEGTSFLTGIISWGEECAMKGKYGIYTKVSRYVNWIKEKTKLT
Factor IXa, sequence (P00740 47-191 partner limits assumed): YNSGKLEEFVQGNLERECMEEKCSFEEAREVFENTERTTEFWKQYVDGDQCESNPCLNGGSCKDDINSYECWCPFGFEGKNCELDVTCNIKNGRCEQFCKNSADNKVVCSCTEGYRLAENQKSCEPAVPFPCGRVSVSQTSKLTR

Row | SMILES | IC50
1 | C[C@]1([C@@H](O)C(=O)Nc2ccc3c(N)noc3c2)OCCN(c2ccn(-c3ccnc(C(F)(F)F)c3)n2)C1=O [Example 94, (R)—N-(3-aminobenzo[d]isoxazol-6-yl)-2-hydroxy-2-((R)-2-methyl-3-oxo-4-(1-(2-(trifluoromethyl)pyridin-4-yl)-1H-pyrazol-3-yl)morpholin-2-yl)acetamide] | 0.0129 µM
2 | C[C@]1([C@@H](O)C(=O)Nc2ccc3c(N)noc3c2)OCCN(c2ccn(-c3c(F)cncc3F)n2)C1=O [Example 95, (R)—N-(3-aminobenzo[d]isoxazol-6-yl)-2-((R)-4-(1-(3,5-difluoropyridin-4-yl)-1H-pyrazol-3-yl)-2-methyl-3-oxomorpholin-2-yl)-2-hydroxyacetamide] | 0.251 µM
3 | COc1cc(-n2ccc(N3CCO[C@](C)([C@@H](O)C(=O)Nc4ccc5c(N)noc5c4)C3=O)n2)cnn1 [Example 98, (R)—N-(3-aminobenzo[d]isoxazol-6-yl)-2-hydroxy-2-((R)-4-(1-(6-methoxypyridazin-4-yl)-1H-pyrazol-3-yl)-2-methyl-3-oxomorpholin-2-yl)acetamide] | 0.00371 µM
4 | C[C@]1([C@@H](O)C(=O)Nc2ccc3c(N)noc3c2)OCCN(c2ccn(-c3cnc(C(F)(F)F)nc3)n2)C1=O [Example 102, (R)—N-(3-aminobenzo[d]isoxazol-6-yl)-2-hydroxy-2-((R)-2-methyl-3-oxo-4-(1-(2-(trifluoromethyl)pyrimidin-5-yl)-1H-pyrazol-3-yl)morpholin-2-yl)acetamide] | 0.124 µM
5 | COc1nccc(-n2ccc(N3CCO[C@](C)([C@@H](O)C(=O)Nc4ccc5c(N)noc5c4)C3=O)n2)n1 [Example 103, (R)—N-(3-aminobenzo[d]isoxazol-6-yl)-2-hydroxy-2-((R)-4-(1-(2-methoxypyrimidin-4-yl)-1H-pyrazol-3-yl)-2-methyl-3-oxomorpholin-2-yl)acetamide] | 0.0108 µM
6 | Cc1cc(N2CCO[C@](C)([C@@H](O)C(=O)Nc3ccc4c(N)noc4c3)C2=O)nn1C1CC1 [Example 104, (R)—N-(3-aminobenzo[d]isoxazol-6-yl)-2-((R)-4-(1-cyclopropyl-5-methyl-1H-pyrazol-3-yl)-2-methyl-3-oxomorpholin-2-yl)-2-hydroxyacetamide] | 0.401 µM
7 | C[C@]1([C@@H](O)C(=O)Nc2ccc3c(N)noc3c2)OCCN(c2nc(-c3ccncc3)co2)C1=O [Example 105, (R)—N-(3-aminobenzo[d]isoxazol-6-yl)-2-hydroxy-2-((R)-2-methyl-3-oxo-4-(4-(pyridin-4-yl)oxazol-2-yl)morpholin-2-yl)acetamide] | 0.0979 µM
8 | C[C@]1([C@@H](O)C(=O)Nc2ccc3c(N)noc3c2)OCCN(c2cccc(-c3cnoc3)n2)C1=O [Example 114, (R)—N-(3-aminobenzo[d]isoxazol-6-yl)-2-hydroxy-2-((R)-4-(6-(isoxazol-4-yl)pyridin-2-yl)-2-methyl-3-oxomorpholin-2-yl)acetamide] | 0.0453 µM
9 | Cc1nocc1-c1cccc(N2CCO[C@](C)([C@@H](O)C(=O)Nc3ccc4c(N)noc4c3)C2=O)n1 [Example 115, (R)—N-(3-aminobenzo[d]isoxazol-6-yl)-2-hydroxy-2-((R)-2-methyl-4-(6-(3-methylisoxazol-4-yl)pyridin-2-yl)-3-oxomorpholin-2-yl)acetamide] | 0.0682 µM
10 | C[C@]1([C@@H](O)C(=O)Nc2ccc3c(N)noc3c2)OCCN(c2ccc3cc(C(F)(F)F)ncc3n2)C1=O [Example 118, (R)—N-(3-aminobenzo[d]isoxazol-6-yl)-2-hydroxy-2-((R)-2-methyl-3-oxo-4-(6-(trifluoromethyl)-1,7-naphthyridin-2-yl)morpholin-2-yl)acetamide] | 0.101 µM
11 | C[C@](O)(C(=O)Nc1cc(Cl)c2c(N)noc2c1)[C@H]1OCCN(c2ccn(-c3ccnnc3)n2)C1=O [Example 122, (R)—N-(3-amino-4-chlorobenzo[d]isoxazol-6-yl)-2-hydroxy-2-((R)-3-oxo-4-(1-(pyridazin-4-yl)-1H-pyrazol-3-yl)morpholin-2-yl)propanamide] | 0.129 µM

Next, values leading:

Row | IC50 | SMILES
12 | 0.0491 µM | Cc1cc(N2CCO[C@](C)([C@@H](O)C(=O)Nc3ccc4c(N)noc4c3)C2=O)nn1-c1ccnc(C(F)(F)F)c1 [Example 96, (R)—N-(3-aminobenzo[d]isoxazol-6-yl)-2-hydroxy-2-((R)-2-methyl-4-(5-methyl-1-(2-(trifluoromethyl)pyridin-4-yl)-1H-pyrazol-3-yl)-3-oxomorpholin-2-yl)acetamide]
13 | 0.00368 µM | C[C@]1([C@@H](O)C(=O)Nc2ccc3c(N)noc3c2)OCCN(c2ccn(-c3ccnnc3)n2)C1=O [Example 97, (R)—N-(3-aminobenzo[d]isoxazol-6-yl)-2-hydroxy-2-((R)-2-methyl-3-oxo-4-(1-(pyridazin-4-yl)-1H-pyrazol-3-yl)morpholin-2-yl)acetamide]
14 | 0.0037 µM | [2H]C([2H])([2H])Oc1cc(-n2ccc(N3CCO[C@](C)([C@@H](O)C(=O)Nc4ccc5c(N)noc5c4)C3=O)n2)cnn1 [Example 99, (2R)—N-(3-amino-1,2-benzoxazol-6-yl)-2-hydroxy-2-[(2R)-2-methyl-3-oxo-4-[1-[6-(trideuteriomethoxy)pyridazin-4-yl]pyrazol-3-yl]morpholin-2-yl]acetamide]
15 | 0.00217 µM | C[C@]1([C@@H](O)C(=O)Nc2ccc3c(N)noc3c2)OCCN(c2ccn(-c3cnnc(C#N)c3)n2)C1=O [Example 100, (R)—N-(3-aminobenzo[d]isoxazol-6-yl)-2-((R)-4-(1-(6-cyanopyridazin-4-yl)-1H-pyrazol-3-yl)-2-methyl-3-oxomorpholin-2-yl)-2-hydroxyacetamide]
16 | 0.635 µM | COc1ncc(-n2ccc(N3CCO[C@](C)([C@@H](O)C(=O)Nc4ccc5c(N)noc5c4)C3=O)n2)cn1 [Example 101, (R)—N-(3-aminobenzo[d]isoxazol-6-yl)-2-hydroxy-2-((R)-4-(1-(2-methoxypyrimidin-5-yl)-1H-pyrazol-3-yl)-2-methyl-3-oxomorpholin-2-yl)acetamide]
17 | 0.37 µM | C[C@]1([C@@H](O)C(=O)Nc2ccc3c(N)noc3c2)OCCN(c2cccc(OC3CCOCC3)n2)C1=O [Example 108, (R)—N-(3-aminobenzo[d]isoxazol-6-yl)-2-hydroxy-2-((R)-2-methyl-3-oxo-4-(6-((tetrahydro-2H-pyran-4-yl)oxy)pyridin-2-yl)morpholin-2-yl)acetamide]
18 | 0.38 µM | C[C@]1([C@@H](O)C(=O)Nc2ccc3c(N)noc3c2)OCCN(c2cccc(-c3ccc(OC(F)(F)F)cc3)n2)C1=O [Example 109, (R)—N-(3-aminobenzo[d]isoxazol-6-yl)-2-hydroxy-2-((R)-2-methyl-3-oxo-4-(6-(4-(trifluoromethoxy)phenyl)pyridin-2-yl)morpholin-2-yl)acetamide]
19 | 0.455 µM | C[C@]1([C@@H](O)C(=O)Nc2ccc3c(N)noc3c2)OCCN(c2cccc(-c3ccc(C(=O)O)cc3)n2)C1=O [Example 110, 4-(6-((R)-2-((R)-2-((3-aminobenzo[d]isoxazol-6-yl)amino)-1-hydroxy-2-oxoethyl)-2-methyl-3-oxomorpholino)pyridin-2-yl)benzoic acid]
20 | 0.972 µM | C[C@]1([C@@H](O)C(=O)Nc2ccc3c(N)noc3c2)OCCN(c2cccc(-c3ccc(C(F)(F)F)cc3C(=O)O)n2)C1=O [Example 111, 2-(6-((R)-2-((R)-2-((3-aminobenzo[d]isoxazol-6-yl)amino)-1-hydroxy-2-oxoethyl)-2-methyl-3-oxomorpholino)pyridin-2-yl)-5-(trifluoromethyl)benzoic acid]
21 | 0.0416 µM | C[C@]1([C@@H](O)C(=O)Nc2ccc3c(N)noc3c2)OCCN(c2cccc(-c3ccnnc3)n2)C1=O [Example 112, (R)—N-(3-aminobenzo[d]isoxazol-6-yl)-2-hydroxy-2-((R)-2-methyl-3-oxo-4-(6-(pyridazin-4-yl)pyridin-2-yl)morpholin-2-yl)acetamide]
22 | 0.464 µM | C[C@]1([C@@H](O)C(=O)Nc2ccc3c(N)noc3c2)OCCN(c2cccc(-c3cnc(C(F)(F)F)nc3)n2)C1=O [Example 113, (R)—N-(3-aminobenzo[d]isoxazol-6-yl)-2-hydroxy-2-((R)-2-methyl-3-oxo-4-(6-(2-(trifluoromethyl)pyrimidin-5-yl)pyridin-2-yl)morpholin-2-yl)acetamide]
23 | 0.0935 µM | Cc1noc(C)c1-c1cccc(N2CCO[C@](C)([C@@H](O)C(=O)Nc3ccc4c(N)noc4c3)C2=O)n1 [Example 116, (R)—N-(3-aminobenzo[d]isoxazol-6-yl)-2-((R)-4-(6-(3,5-dimethylisoxazol-4-yl)pyridin-2-yl)-2-methyl-3-oxomorpholin-2-yl)-2-hydroxyacetamide]
24 | 0.544 µM | C[C@]1([C@@H](O)C(=O)Nc2ccc3c(N)noc3c2)OCCN(c2ccc3ccncc3n2)C1=O [Example 117, (R)—N-(3-aminobenzo[d]isoxazol-6-yl)-2-hydroxy-2-((R)-2-methyl-4-(1,7-naphthyridin-2-yl)-3-oxomorpholin-2-yl)acetamide]
25 | 0.224 µM | C[C@](O)(C(=O)Nc1cc(Cl)c2c(N)noc2c1)[C@H]1OCCN(c2ccn(-c3ccncc3)n2)C1=O [Example 119, (R)—N-(3-amino-4-chlorobenzo[d]isoxazol-6-yl)-2-hydroxy-2-((R)-3-oxo-4-(1-(pyridin-4-yl)-1H-pyrazol-3-yl)morpholin-2-yl)propanamide]
26 | 1.05 µM | C[C@](O)(C(=O)Nc1cc(Cl)c2c(N)noc2c1)[C@H]1OCCN(c2ccn(-c3ccnc(C(F)(F)F)c3)n2)C1=O [Example 120, (R)—N-(3-amino-4-chlorobenzo[d]isoxazol-6-yl)-2-hydroxy-2-((R)-3-oxo-4-(1-(2-(trifluoromethyl)pyridin-4-yl)-1H-pyrazol-3-yl)morpholin-2-yl)propanamide]
27 | 0.193 µM | C[C@](O)(C(=O)Nc1cc(Cl)c2c(N)noc2c1)[C@H]1OCCN(c2nn(-c3ccnc(C(F)(F)F)c3)cc2F)C1=O [Example 121, (R)—N-(3-amino-4-chlorobenzo[d]isoxazol-6-yl)-2-((R)-4-(4-fluoro-1-(2-(trifluoromethyl)pyridin-4-yl)-1H-pyrazol-3-yl)-3-oxomorpholin-2-yl)-2-hydroxypropanamide]

Source: patent US9708308B2, “Factor IXa inhibitors” (Merck Sharp & Dohme Corp., priority 2012, dated 2017)
